Test results: patent US20250214960A1, “COMPOUNDS HAVING ACTIVITY OF DEGRADING GSPT1 AND APPLICATION THEREOF” (SHANGHAI MEIZER PHARMACEUTICALS CO., LTD., priority 2021, published 2025)
Where two headings read alike, the source gives them in different places.

Columns and labels:
Type in all cases: cell-based
HL-60 cells = experiment: CTG method, inhibition of HL-60 cell proliferation; conditions: Homo sapiens; HL-60, 72 hours; read-out: Cellular proliferation inhibition IC50
Procedure: (§1) Test Example 2: CTG Method for Detecting the Inhibitory Effect of Compounds of Formula on the Proliferation of HNT 34 or HL-60 Cells
(§2) HNT-34 or HL-60 cells were taken and cultured in RPMI1640 medium containing 20% fetal bovine serum. The cells were inoculated on a 96 well plate, with 1×10^4 cells per well, and incubated at 37° C. in a […] incubator. After adding the test compound, it was incubated for 72 hours. Then an appropriate amount of CTG reagent was added, the luminescence value was measured, and the inhibition rate was calculated.

GSPT1 protein = molecular target: T1, GSPT1 protein (Homo sapiens, UniProt P15170+Q96SW2); experiment: Western blot detection of degradation activity of GSPT1 protein in Jeko-1 cells; conditions: JeKo-1, 24 h, read-out: GSPT1 degradation rate (%)
T1 construct: endogenous in cells; host or cells: Jeko-1
T1 sequence (P15170 whole entry): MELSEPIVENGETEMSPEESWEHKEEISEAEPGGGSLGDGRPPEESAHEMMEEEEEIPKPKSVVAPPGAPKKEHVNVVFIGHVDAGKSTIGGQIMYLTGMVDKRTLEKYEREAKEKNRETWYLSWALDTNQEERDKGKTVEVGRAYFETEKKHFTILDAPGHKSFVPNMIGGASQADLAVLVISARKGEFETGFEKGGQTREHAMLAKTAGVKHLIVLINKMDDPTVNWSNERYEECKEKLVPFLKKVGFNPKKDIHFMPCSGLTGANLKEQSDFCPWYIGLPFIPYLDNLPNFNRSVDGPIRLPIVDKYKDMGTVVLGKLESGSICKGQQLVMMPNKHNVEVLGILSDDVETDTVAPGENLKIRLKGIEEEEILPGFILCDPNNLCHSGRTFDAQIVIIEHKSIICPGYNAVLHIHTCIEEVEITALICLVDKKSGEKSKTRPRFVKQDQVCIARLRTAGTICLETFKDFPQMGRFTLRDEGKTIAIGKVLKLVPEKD
T1 sequence (Q96SW2 whole entry): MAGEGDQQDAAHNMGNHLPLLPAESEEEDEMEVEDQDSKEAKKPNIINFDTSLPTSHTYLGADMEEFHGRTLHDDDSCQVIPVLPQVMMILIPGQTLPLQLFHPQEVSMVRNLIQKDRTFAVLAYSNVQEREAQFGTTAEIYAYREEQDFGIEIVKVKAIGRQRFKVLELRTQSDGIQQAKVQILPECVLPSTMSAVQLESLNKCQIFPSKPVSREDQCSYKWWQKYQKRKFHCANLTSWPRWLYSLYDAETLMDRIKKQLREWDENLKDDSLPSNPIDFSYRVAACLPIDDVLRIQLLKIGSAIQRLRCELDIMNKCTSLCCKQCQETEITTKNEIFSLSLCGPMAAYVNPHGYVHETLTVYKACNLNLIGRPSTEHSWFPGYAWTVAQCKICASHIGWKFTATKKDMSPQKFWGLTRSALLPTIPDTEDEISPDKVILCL
T1 sequence (Q16531 whole entry partner): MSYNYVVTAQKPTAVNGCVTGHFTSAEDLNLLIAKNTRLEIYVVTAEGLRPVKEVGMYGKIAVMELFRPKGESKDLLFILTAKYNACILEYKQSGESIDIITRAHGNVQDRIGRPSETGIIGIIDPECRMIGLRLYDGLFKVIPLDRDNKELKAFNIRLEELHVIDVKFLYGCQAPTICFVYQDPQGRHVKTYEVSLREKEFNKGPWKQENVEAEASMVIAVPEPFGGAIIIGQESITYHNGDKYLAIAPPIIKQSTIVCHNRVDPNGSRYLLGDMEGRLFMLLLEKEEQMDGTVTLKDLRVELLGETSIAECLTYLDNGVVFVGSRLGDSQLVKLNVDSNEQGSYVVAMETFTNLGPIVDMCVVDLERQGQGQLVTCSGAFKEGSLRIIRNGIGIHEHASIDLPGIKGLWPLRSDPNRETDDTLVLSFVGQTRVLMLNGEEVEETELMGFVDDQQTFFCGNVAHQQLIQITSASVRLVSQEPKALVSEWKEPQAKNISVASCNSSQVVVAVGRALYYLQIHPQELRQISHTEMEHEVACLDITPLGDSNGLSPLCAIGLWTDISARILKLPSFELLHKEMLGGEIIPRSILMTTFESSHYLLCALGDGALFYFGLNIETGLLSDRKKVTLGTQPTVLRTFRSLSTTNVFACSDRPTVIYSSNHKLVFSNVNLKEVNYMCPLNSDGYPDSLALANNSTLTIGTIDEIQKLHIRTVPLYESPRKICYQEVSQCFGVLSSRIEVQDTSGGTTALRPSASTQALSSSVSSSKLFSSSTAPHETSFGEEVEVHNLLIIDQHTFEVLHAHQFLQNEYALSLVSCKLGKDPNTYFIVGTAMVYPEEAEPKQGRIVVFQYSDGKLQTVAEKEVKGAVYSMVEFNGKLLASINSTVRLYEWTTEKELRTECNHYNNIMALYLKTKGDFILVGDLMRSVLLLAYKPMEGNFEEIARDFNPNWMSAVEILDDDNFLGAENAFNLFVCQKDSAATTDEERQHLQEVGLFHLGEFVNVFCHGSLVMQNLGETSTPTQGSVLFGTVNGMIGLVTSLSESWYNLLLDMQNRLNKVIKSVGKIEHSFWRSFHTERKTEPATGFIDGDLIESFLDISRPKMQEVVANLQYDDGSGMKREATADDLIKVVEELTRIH
Procedure: Test Example 1: Western Blot Detection of Degradation Activity of GSPT1 Protein by the Compounds
Cell line: Jeko-1 cell line was cultured with an RPMI1640 media containing 20% fetal bovine serum in an incubator at 37° C., 5% CO2, and saturated humidity.
DMSO control group and test compound (concentration shown in the table below) were set up, after processing for 24 hours, the cells were collected, pre-cooled cell lysate was added and left on ice for 10 minutes. The total protein of the cells was extracted, and the protein concentration was measured and quantified using the BCA method. Routine gel preparation, sample loading, electrophoresis were conducted, then the membrane was transferred, and sealed, wherein the primary antibody was diluted with a blocking solution at 1:500-5000. The membrane was immersed in the diluted primary antibody and incubated overnight at 4° C. After rinsing, the secondary antibody was diluted with a sealing solution at 1:10000-20000, the membrane was immersed in the diluted secondary antibody, and incubated at room temperature for 45 minutes. After rinsing, the results were tested on ODYSSEY (Li-COR). GAPDH was used as an internal reference control.
Image J software was used to perform gray level analysis on each band and the degradation rate of GSPT1 protein by the compounds was calculated.

HNT-34 cells = experiment: CTG method, inhibition of HNT-34 cell proliferation; conditions: HNT-34, 72 hours; read-out: Cellular proliferation inhibition IC50
Procedure: as §1, §2

IC50 (HL-60 cells) [nM] | inhibition at 0.1 µM (GSPT1 protein; 100 nM, Jeko-1 cells, 24 hours) [%] | inhibition at 10 µM (GSPT1 protein; 10 μM, Jeko-1 cells, 24 hours) [%] | Compound | IC50 (HNT-34 cells) [nM] | other results
25.8 | 18.8 | 84.1 | CC(C)(C)OC(=O)N[C@H](C(=O)NCc1ccc2c(c1)CN(C1CCC(=O)NC1=O)C2=O)C1CCCCC1 (stereo partly drawn) [Compound 5-56, Tert butyl ((1S)-1-cyclohexyl-2-((2-(2,6-dioxopyridin-3-yl)-1-oxoisoidoline-5-yl)methyl)amino)-2-oxoethyl) carbamate] | 18 | –
6.9 | 94.9 | 96.9 | CN(C(=O)CC1CCCC1)[C@H](C(=O)NCc1ccc2c(c1)CN(C1CCC(=O)NC1=O)C2=O)c1ccccc1 (stereo partly shown) [Compound 5-50] | 5.8 | –
11 | 97 | 98 | CC[C@H](C)[C@@H](CC(=O)NCc1ccc2c(c1)CN(C1CCC(=O)NC1=O)C2=O)NC(=O)OC(C)(C)C (stereo partly drawn) [Compound 5-97, Tert butyl ((3R,4S)-1-((2-(2,6-dioxypiperidin-3-yl)-1-oxoisoidoline-5-yl)methyl)amino)-4-methyl-1-oxohexane-3-yl) carbamate] | 6.9 | –
– | 29.8 | 74.8 | CC(C)(C)OC(=O)O[C@H](C(=O)NCc1ccc2c(c1)CN(C1CCC(=O)NC1=O)C2=O)c1ccccc1 (stereo partly drawn) [Compound 5-82, Tert butyl ((1S)-2-((2-(2,6-dioxypiperidin-3-yl)-1-oxoisoindoline-5-yl)methyl)amino)-2-oxo-1-phenylethy 1) carbonate] | – | –
– | 36 | 93.7 | O=C1CCC(N2Cc3cc(CNC(=O)C(CNC(=O)C4CCCC4)C4CCCCC4)ccc3C2=O)C(=O)N1 (stereo not shown) [Compound 5-59] | – | –
– | 98 | 99 | CC(C)(C)OC(=O)NC(CC(=O)NCc1ccc2c(c1)CN(C1CCC(=O)NC1=O)C2=O)C1CCCC1 (stereo not shown) [Compound 5-99, Tert butyl (1-cyclopentyl-3-((2-(2,6-dioxypiperidin-3-yl)-1-oxoisoindoline-5-yl)methyl)amino)-3-oxopropyl) carbamate] | – | –
– | 59 | 93 | O=C1CCC(N2Cc3cc(CNC(=O)C(NC(=O)C4CCCC4)c4ccccc4)ccc3C2=O)C(=O)N1 (stereo not shown) [Compound 5-30] | – | –
– | 70 | 97 | O=C1CCC(N2Cc3cc(CNC(=O)C(NC(=O)CC4CCCC4)c4ccccc4)ccc3C2=O)C(=O)N1 (stereo not shown) [Compound 5-29, 2-(2-cyclopentylacetamido)-N-((2-(2,6-dioxopyridin-3-yl)-1-oxoisoidoline-5-yl)methyl)-2-phenylacetamide] | – | –

Further lines, the compound ahead of its results:

Compound | IC50 (HL-60 cells) [nM] | inhibition at 0.1 µM (GSPT1 protein; 100 nM, Jeko-1 cells, 24 hours) [%] | inhibition at 10 µM (GSPT1 protein; 10 μM, Jeko-1 cells, 24 hours) [%] | IC50 (HNT-34 cells) [nM] | other results
Cc1ccc([C@H](NC(=O)OC(C)(C)C)C(=O)NCc2ccc3c(c2)CN(C2CCC(=O)NC2=O)C3=O)cc1 (stereo partly drawn) [Compound 4-166, Tert butyl ((1S)-2-((2-(2,6-dioxypiperidin-3-yl)-1-oxoisoindoline-5-yl)methyl)amino)-2-oxo-1-(p-tolyl) ethyl) carbamate] | 12.8 | 82 | 93 | 11.3 | –
CC(C)(C)OC(=O)N[C@H](C(=O)NCc1ccc2c(c1)CN(C1CCC(=O)NC1=O)C2=O)c1ccc2ccccc2c1 (stereo partly drawn) [Compound 4-133, tert butyl ((1S)-2-((2-(2,6-dioxypiperidin-3-yl)-1-oxoisoidoline-5-yl)methyl)amino)-1-(naphthalene-2-yl)-2-oxoethyl) carbamate] | 14.3 | 79 | 86 | 3.2 | –
CC(C)(C)OC(=O)NC(C(=O)NCc1ccc2c(c1)CN(C1CCC(=O)NC1=O)C2=O)c1ccccc1Cl (stereo not shown) [Compound 4-200, Tert butyl (1-(2-chlorophenyl)-2-((2-(2,6-dioxypiperidin-3-yl)-1-oxoisoindoline-5-yl)methyl)amino)-2-oxoethyl) carbamate] | 8.3 | 99 | 100 | 3.2 | –
O=C1CCC(N2Cc3cc(CNC(=O)C(CNC(=O)Oc4ccccc4)c4ccccc4)ccc3C2=O)C(=O)N1 (stereo not shown) [Compound 5-10, Phenyl (3-((2-(2,6-dioxypiperidin-3-yl)-1-oxoisoindolin-5-yl)methyl)amino)-3-oxo-2-phenylpropyl) carbamate] | 37.7 | – | – | 36.9 | inhibition at 0.1 µM (GSPT1 protein): 73%; inhibition at 10 µM (GSPT1 protein): 90%
CC(C)OC(=O)N[C@@H](CC1CCCCC1)C(=O)NCc1ccc2c(c1)CN(C1CCC(=O)NC1=O)C2=O (stereo partly drawn) [Compound 5-94, Isopropyl ((2S)-3-cyclohexyl-1-((2-(2,6-dioxypiperidin-3-yl)-1-oxoisoindolin-5-yl)methyl)amino)-1-oxopropan-2-yl) carbamate] | 12.8 | – | – | 7.4 | inhibition at 0.1 µM (GSPT1 protein): 85%; inhibition at 10 µM (GSPT1 protein): 95%
CCN(C(=O)OC(C)(C)C)[C@H](C(=O)NCc1ccc2c(c1)CN(C1CCC(=O)NC1=O)C2=O)c1ccccc1 (stereo partly drawn) [Compound 1-89, Tert butyl ((1S)-2-((2-(2,6-dioxypiperidin-3-yl)-1-oxoisoindoline-5-yl)methyl)amino)-2-oxo-1-phenylethy 1) (ethyl) carbamate] | 5 | 97.8 | 98.7 | 3.8 | –
CN(C(=O)OC(C)(C)C)[C@H](C(=O)NCc1ccc2c(c1)CN(C1CCC(=O)NC1=O)C2=O)c1ccccc1 (stereo partly drawn) [Compound 4-135, Tert butyl ((1S)-2-((2-(2,6-dioxypiperidin-3-yl)-1-oxoisoindoline-5-yl)methyl)amino)-2-oxo-1-phenylethy 1) (methyl) carbamate] | 14.3 | 80 | 93 | 6.2 | –
CC(C)(C)OC(=O)N[C@H](C(=O)NCc1ccc2c(c1)CN([C@H]1CCC(=O)NC1=O)C2=O)c1ccccc1Cl [Compound 5-17b, Tert butyl ((1S)-1-(2-chlorophenyl)-2-((2-((S)-2,6-dioxopyridin-3-yl)-1-oxoisoidoline-5-yl)methyl)amino)-2-oxoethyl) carbamate] | 4.6 | – | – | – | inhibition at 0.01 µM (GSPT1 protein; 10 nM, Jeko-1 cells, 24 hours): 57%; inhibition at 1 µM (GSPT1 protein; 1 μM, Jeko-1 cells, 24 hours): 100%
CC(C)[C@@H]1CC[C@@H](C)C[C@H]1OC(=O)N[C@H](C(=O)NCc1ccc2c(c1)CN(C1CCC(=O)NC1=O)C2=O)c1ccccc1 (stereo partly shown) [Compound 4-175b] | – | – | – | – | inhibition at 0.01 µM (GSPT1 protein): 98%; inhibition at 1 µM (GSPT1 protein): 99%
CC(C)(C)OC(=O)N[C@H](C(=O)NCc1ccc2c(c1)CN(C1CCC(=O)NC1=O)C2=O)c1ccc(F)cc1 (stereo partly drawn) [Compound 4-136, Tert butyl ((1S)-2-((2-(2,6-dioxypiperidin-3-yl)-1-oxoisoidoline-5-yl)methyl)amino)-1-(4-fluorophenyl)-2-oxoethyl) carbamate] | – | 82 | 97 | 3.6 | –
CC(C)(C)OC(=O)N[C@H](Cc1ccccc1)C(=O)NCc1ccc2c(c1)CN(C1CCC(=O)NC1=O)C2=O (stereo partly drawn) [Compound 4-132, Tert butyl ((2R)-1-((2-(2,6-dioxypiperidin-3-yl)-1-oxoisoindoline-5-yl)methyl)amino)-1-oxo-3-phenylpro p-2-yl) carbamate] | – | 93 | 96 | – | –
O=C1CCC(N2Cc3cc(CNC(=O)[C@H](CC4CCCCC4)NC(=O)OC4CCCC4)ccc3C2=O)C(=O)N1 (stereo partly drawn) [Compound 5-93, Cyclopentyl ((2S)-3-cyclohexyl-1-((2-(2,6-dioxopyridin-3-yl)-1-oxoisoidoline-5-yl)methyl)amino)-1-oxopropan-2-yl) carbamate] | – | – | – | – | inhibition at 0.1 µM (GSPT1 protein): 99%; inhibition at 10 µM (GSPT1 protein): 100%
Cc1ccc(S(=O)(=O)N[C@H](C(=O)NCc2ccc3c(c2)CN(C2CCC(=O)NC2=O)C3=O)c2ccccc2)cc1 (stereo partly shown) [Compound 4-176] | – | 35 | 53 | – | –
CCOC(=O)N[C@H](C(=O)NCc1ccc2c(c1)CN(C1CCC(=O)NC1=O)C2=O)c1ccccc1 (stereo partly drawn) [Compound 4-138, Ethyl ((1S)-2-((2-(2,6-dioxypiperidin-3-yl)-1-oxoisoindoline-5-yl)methyl)amino)-2-oxo-1-phenylethyl) carbamate] | – | 31 | 88 | – | –
O=C1CCC(N2Cc3cc(CNC(=O)C(CNC(=O)C4CCCCC4)c4ccccc4)ccc3C2=O)C(=O)N1 (stereo not shown) [Compound 5-25] | – | 58 | 96 | – | –
N[C@H](C(=O)NCc1ccc2c(c1)CN(C1CCC(=O)NC1=O)C2=O)c1ccccc1 (stereo partly shown) [Compound 4-87-2] | – | 21 | 15 | – | –
